Data reported in patent EP0044212B1, “Herbicidal o-alkylsulfonyloxy- and o-alkylsulfonylamino-benzenesulfonamides” (E.I. DU PONT DE NEMOURS AND COMPANY, priority 1980, dated 1982).

Tests used:
Cucumber = assay: Test C pre-emergence on Fallsington silt loam soil; assay type: in vivo, cucumbers; settings: 0.03 kg/ha, 28 days
Description: (§1) The high herbicidal activity of two of the compounds from within the scope of the invention is evident from the results obtained in this test. The experiment concerned pre-emergence applications on soil. The containers used were 25 cm diameter plastic pots filled with Fallsington silt loam. One set of pots was planted to weeds, the seeds of which were uniformly mixed with the top 1.2 cm layer of soil. The species selected were: johnsongrass (Sorghum halepense), barnyardgrass (Echinochloa crusgalli), crabgrass (Digitaria sanguinalis), giant foxtail (Setaria faberii), velvetleaf (Abutilon theophrasti), jimsonweed (Datura stramonium), mustard (Brassica arvensis), and pigweed (Amaranthus retroflexus). Another set of pots were planted to the following crops with from one to four species per pot: corn (planting depth 3.7 cm), cotton, soybeans, sunflower, Clinton oats, wheat, Black Valentine beans, rice, sorghum, peas, flax, and peanuts (all at 2.5 cm depth), cucumbers, cabbage, alfalfa, safflower, sugarbeets, tomato, spinach, barley, and Kentucky bluegrass (all at 1.2 cm depth). Immediately after planting, the test chemical was applied to the soil surfaces dissolved in a non-phytotoxic solvent. One pot from the weed phase and one of each of the crop species were left untreated for the purpose of comparison. […]

Ky. bluegrass = assay: Test C pre-emergence on Fallsington silt loam soil; assay type: in vivo, Kentucky bluegrass; settings: 0.03 kg/ha, 28 days
Description: as §1

Kochia = assay: Test D pre-/post-emergence weed control in cereals; assay type: in vivo, Kochia scoparia; settings: 20 days
Description: (§2) Two ten-inch in diameter plastic pans lined with polyethylene liners were filled with prepared Fallsington slit loam soil. One pan was planted with seeds of wheat (Triticum aestivum), barley (Hordeum vulgarel, wild oats (Avena fatua), downy brome (Bromus tectorum), cheatgrass (Bromus secalinus), blackgrass (Alopecurus myosuroides), annual bluegrass (Poa annual, green foxtail (Setaria viridis), quack grass (Agropyron repens), Italian ryegrass (Lolium multiflorum) and ripgut brome (Bromus rigidus). The other pan was planted with seeds of Russian thistle (Salsola kali), tansy mustard (Descuraina pinnata), smartweed (Polygonum pensylvanicum), tumble mustard (Sisymbrium altissium) kochia (Kochia scoparia), shepherd's purse (Capsella bursa-pastoris), Matricaria inodora, black nightshade (Solanum nigrum), yellow rocket (Barbarea vulgaris), wild mustard (Brassica kaber) and wild buckwheat (Polygonum convolvulus). The above two pans were treated pre-emergence. At the same time two pans in which the above plant species were growing were treated post-emergence. Plant height at the time of treatment ranged from 1-15 cm depending on plant species.
(§3) The compounds applied were diluted with a non-phytotoxic solvent and sprayed over-the-top of the pans. An untreated control and a solvent alone control were included for comparison. All treatments were maintained in the greenhouse for 20 days at which time the treatments were compared to the controls and the effects visually rated. The recorded data, presented in Table D, indicate that certain compounds from within the scope of the invention have utility for pre- and/or post-emergence weed control in cereal crops such as wheat and barley.

Green Foxtail = assay: Test D pre-/post-emergence weed control in cereals; assay type: in vivo, Setaria viridis; settings: 20 days
Description: as §2, §3

Arrowhead = assay: Test E application to paddy water after transplanting of rice; assay type: in vivo, Sagittaria spp.
Description: Test samples were formulated and applied directly to the paddy water three days after transplanting of rice. The test was maintained in a greenhouse, and plant response ratings were taken at the stated intervals after application.

Cheatgrass = assay: Test D pre-/post-emergence weed control in cereals; assay type: in vivo, Bromus secalinus; settings: 20 days
Description: as §2, §3

Quackgrass = assay: Test D pre-/post-emergence weed control in cereals; assay type: in vivo, Agropyron repens; settings: 20 days
Description: as §2, §3

Wild Mustard = assay: Test D pre-/post-emergence weed control in cereals; assay type: in vivo, Brassica kaber; settings: 20 days
Description: as §2, §3

Wheat = assay: Test D pre-/post-emergence weed control in cereals; assay type: in vivo, Triticum aestivum; settings: 20 days
Description: as §2, §3

Wild Oats = assay: Test D pre-/post-emergence weed control in cereals; assay type: in vivo, Avena fatua; settings: 20 days
Description: as §2, §3

Downy Brome = assay: Test D pre-/post-emergence weed control in cereals; assay type: in vivo, Bromus tectorum; settings: 20 days
Description: as §2, §3

Shepherd's Purse = assay: Test D pre-/post-emergence weed control in cereals; assay type: in vivo, Capsella bursa-pastoris; settings: 20 days
Description: as §2, with “Plant height at the time of treatment ranged from 1-15 cm depending on plant species.” left out
(§4) The compounds applied were diluted with a non-phytotoxic solvent and sprayed over-the-top of the pans. […] The recorded data, presented in Table D, indicate that certain compounds from within the scope of the invention have utility for pre- and/or post-emergence weed control in cereal crops such as wheat and barley.

Blackgrass = assay: Test D pre-/post-emergence weed control in cereals; assay type: in vivo, Alopecurus myosuroides; settings: 0.015 kg/ha, 20 days
Description: as §2, with “Plant height at the time of treatment ranged from 1-15 cm depending on plant species.” left out
as §4

Ripgut Brome = assay: Test D pre-/post-emergence weed control in cereals; assay type: in vivo, Bromus rigidus; settings: 20 days
Description: as §2, §3

Soybeans = assay: Test G broadleaf herbicidal properties, overall spray; assay type: in vivo, soybean; settings: 0.015 kg/ha, 22 days after treatment
Protocol: Approximately 12 soybean plants were grown in a 25 cm. diameter plastic pot. In another pot of equal size the following broadleaf plant species were grown: sugarbeets, velvetleaf, Sesbania, Cassia, mustard, morningglory, alfalfa, jimsonweed, and cocklebur. The plant foliage and surrounding soil were treated with the test chemical dissolved in a non-phytotoxic solvent as an overall spray at the rate of 0.015 kg/ha, when the plants were 17 days old. Visual ratings of herbicidal effects were made 22 days after treatment utilizing the rating system described for Test A.

With `COc1cc(OC)nc(NC(=O)NS(=O)(=O)c2ccccc2OS(C)(=O)=O)n1` [Compound 1, N-[(4,6-Dimethoxypyrimidin-2-yl)aminocarbonyl]-2-hydroxybenzenesulfonamide, methanesulfonate] the Cucumber response rating (Cucumber) was 5G and the “Ky. bluegrass response rating” value (Ky. bluegrass) was 7G.

With `CCCS(=O)(=O)Oc1ccccc1S(=O)(=O)NC(=O)Nc1nc(OC)cc(OC)n1` [Compound 36, N-[(4,6-dimethoxypropimidin-2-yl)aminocarbonyl]-2-hydroxybenzenesulfonamide, 1-propanesulfonate] the Kochia response rating (Kochia; Post-Emergence, 0.015 kg/ha) was 0, the Kochia response rating (Kochia; Post-Emergence, 0.06 kg/ha) was 0 and the Kochia response rating (Kochia; Pre-Emergence, 0.015 kg/ha) was 0. For the same molecule, the “Green Foxtail response rating” value (Green Foxtail; Post-Emergence, 0.015 kg/ha) was 1G, the “Green Foxtail response rating” value (Green Foxtail; Post-Emergence, 0.06 kg/ha) was 2G and the “Green Foxtail response rating” value (Green Foxtail; Pre-Emergence, 0.015 kg/ha) was 2G. For the same molecule, the “Arrowhead*** 8 Weeks” value (Arrowhead; 25 g/ha in paddy water) was 0, the “Arrowhead*** 8 Weeks” value (Arrowhead; 100 g/ha in paddy water) was 0 and the Cheatgrass response rating (Cheatgrass; Post-Emergence, 0.015 kg/ha) was 1G. It also gave a Cheatgrass response rating (Cheatgrass; Pre-Emergence, 0.015 kg/ha) of 7G, a Cheatgrass response rating (Cheatgrass; Pre-Emergence, 0.06 kg/ha) of 10C and a Quackgrass response rating (Quackgrass; Post-Emergence, 0.015 kg/ha) of 0. The Quackgrass response rating (Quackgrass; Post-Emergence, 0.06 kg/ha) was 0, the Quackgrass response rating (Quackgrass; Pre-Emergence, 0.015 kg/ha) was 0 and the Quackgrass response rating (Quackgrass; Pre-Emergence, 0.06 kg/ha) was 2G. For the same molecule, the “Wild Mustard response rating” value (Wild Mustard; Post-Emergence, 0.015 kg/ha) was 10C, the “Wild Mustard response rating” value (Wild Mustard; Post-Emergence, 0.06 kg/ha) was 10C and the “Wild Mustard response rating” value (Wild Mustard; Pre-Emergence, 0.06 kg/ha) was 10C. It also gave a Wheat response rating (Wheat; Post-Emergence, 0.015 kg/ha) of 0, a Wheat response rating (Wheat; Post-Emergence, 0.06 kg/ha) of 0 and a Wheat response rating (Wheat; Pre-Emergence, 0.015 kg/ha) of 0. For the same molecule, the Wheat response rating (Wheat; Pre-Emergence, 0.06 kg/ha) was 0, the “Wild Oats response rating” value (Wild Oats; Post-Emergence, 0.015 kg/ha) was 0 and the “Wild Oats response rating” value (Wild Oats; Post-Emergence, 0.06 kg/ha) was 0. The “Wild Oats response rating” value (Wild Oats; Pre-Emergence, 0.015 kg/ha) was 0, the “Wild Oats response rating” value (Wild Oats; Pre-Emergence, 0.06 kg/ha) was 0 and the “Downy Brome response rating” value (Downy Brome; Post-Emergence, 0.015 kg/ha) was 0. For the same molecule, the “Downy Brome response rating” value (Downy Brome; Post-Emergence, 0.06 kg/ha) was 3G, the “Downy Brome response rating” value (Downy Brome; Pre-Emergence, 0.015 kg/ha) was 3G and the “Downy Brome response rating” value (Downy Brome; Pre-Emergence, 0.06 kg/ha) was 6G. The “Shepherd's Purse response rating” value (Shepherd's Purse; Post-Emergence, 0.06 kg/ha) was 10C, the “Shepherd's Purse response rating” value (Shepherd's Purse; Pre-Emergence, 0.015 kg/ha) was 7G and the Blackgrass response rating (Blackgrass; Post-Emergence) was 2G. The Blackgrass response rating (Blackgrass; Pre-Emergence) was 6G, the “Ripgut Brome response rating” value (Ripgut Brome; Post-Emergence, 0.015 kg/ha) was 0 and the “Ripgut Brome response rating” value (Ripgut Brome; Post-Emergence, 0.06 kg/ha) was 2G. The “Ripgut Brome response rating” value (Ripgut Brome; Pre-Emergence, 0.015 kg/ha) was 2G.

`CCCS(=O)(=O)Oc1ccccc1S(=O)(=O)NC(=O)Nc1nc(C)nc(OC)n1` [Compound 39, 2-hydroxy-N-[(4-methoxy-6-methyl-1,3,5-triazin-2-yl)aminocarbonyl]benzenesulfonamide, 1-propanesulfonate] was tested, and the Soybeans response rating (Soybeans) was 0.
